Assay results: patent publication US8361487B1, “Ant controllers and method for application thereof” (BASF Aktiengesellschaft, priority 1999, dated 2013)

Tests used:
[1] = tested on: fireant (Solenopsis geminata); assay: Test Example 2: drench treatment of fireant nests; format: in vivo; set-up: key: A: Nest is completely destructed or activity of the nest is extremely low.; B: Activity of the nest is exhibited.; C: High activity of the nest is exhibited.; D: Activity of the nest is extremely high; conditions: 1 g of the active ingredient per one nest, 14 days after the treatment
Procedure: The ant controller of the present invention was applied to nests (anthill) of fireant (Solenopsis geminata) with drench treatment, in terms of 1 g of the active ingredient per one nest. 14 Days after the treatment of the ant controller, the activity of the nests was evaluated according to the following criterion. The test was carried out with one block per one nest.

[2] = tested on: Coptotermes formosanus Shiraki; assay: Test Example 1: termite-killing test on treated filter paper; format: in vivo; conditions: mortality class; 1 ml of a 500 ppm solution on filter paper, seven days after inoculation, triplicate group of 10 insects
Procedure: A filter paper was spread in a glass dish having a diameter of 9 cm, onto which was dropped 1 ml of a 500 ppm solution of the ant controller of the present invention. Then, the filter paper was inoculated with Coptotermes formosanus Shiraki. Seven days after the inoculation, percentage of dead insects was investigated, from which mortality was calculated. The test was carried out with triplicate group of 10 insects.

SMILES | activity of the nests (effect) [1] | Termite-killing effect [2]
N#Cc1ccc(CC(=NNC(=O)Nc2ccc(OC(F)(F)F)cc2)c2cccc(C(F)(F)F)c2)cc1 [Compound 44] | A | C (89-80)
N#Cc1ccc(CC(NNC(=O)Nc2ccc(OC(F)(F)F)cc2)c2cccc(C(F)(F)F)c2)cc1 (centres unmarked) [Compound 96] | A | A (100)
CCNC(=O)N(NC(=O)Nc1ccc(OC(F)(F)F)cc1)C(Cc1ccc(C#N)cc1)c1cccc(Cl)c1 (centres unmarked) [Compound 103] |  | A (100)
O=C(NNC(Cc1ccc(F)cc1)c1ccccc1)Nc1ccc(OC(F)(F)F)cc1 (centres unmarked) [Compound 109] |  | C (89-80)
O=C(NNC(Cc1ccc(Br)cc1)c1ccccc1)Nc1ccc(Cl)cc1 (centres unmarked) [Compound 110] |  | B (99-90)
O=C(NNC(Cc1ccc(Br)cc1)c1ccccc1)Nc1ccc(OC(F)(F)F)cc1 (centres unmarked) [Compound 111] |  | D (79-50)
N#Cc1cccc(CC(NNC(=O)Nc2ccc(OC(F)(F)F)cc2)c2ccccc2)c1 (centres unmarked) [Compound 112] |  | A (100)
O=C(NNC(Cc1ccccc1[N+](=O)[O-])c1ccccc1)Nc1ccc(OC(F)(F)F)cc1 (centres unmarked) [Compound 113] |  | A (100)
N#Cc1ccc(CC(NNC(=O)Nc2ccc(OC(F)(F)F)cc2)c2cccc(F)c2)cc1 (centres unmarked) [Compound 114] |  | B (99-90)
N#Cc1ccc(CC(NNC(=O)Nc2ccc(SC(F)(F)F)cc2)c2cccc(F)c2)cc1 (centres unmarked) [Compound 115] |  | A (100)
N#Cc1ccc(CC(NNC(=O)Nc2ccc([S+]([O-])C(F)(F)F)cc2)c2cccc(F)c2)cc1 (centres unmarked) [Compound 116] |  | B (99-90)
N#Cc1ccc(CC(NNC(=O)Nc2ccc([S+]([O-])C(F)(F)F)cc2)c2cccc(C(F)(F)F)c2)cc1 (centres unmarked) [Compound 119] |  | A (100)
N#Cc1ccc(CC(NNC(=O)Nc2ccc(S(=O)(=O)C(F)(F)F)cc2)c2cccc(C(F)(F)F)c2)cc1 (centres unmarked) [Compound 120] |  | A (100)
N#Cc1cccc(CC(NNC(=O)Nc2ccc(OC(F)(F)F)cc2)c2ccccc2)c1 (centres unmarked) [Compound 121] |  | C (89-80)
O=C(C=NN(Cc1ccccc1)c1ccccc1)Nc1ccc(OC(F)(F)F)cc1 [Compound 122] |  | D (79-50)
O=C(C=NN(Cc1ccc(Cl)cc1)c1ccccc1)Nc1ccc(OC(F)(F)F)cc1 [Compound 123] |  | A (100)
N#Cc1ccc(CN(N=CC(=O)Nc2ccc(Cl)cc2)c2ccccc2)cc1 [Compound 124] |  | D (79-50)
N#Cc1ccc(CN(N=CC(=O)Nc2ccc(OC(F)(F)F)cc2)c2ccccc2)cc1 [Compound 125] |  | A (100)
O=C(C=NN(Cc1ccc(Cl)cc1)c1cccc(Cl)c1)Nc1ccc(Cl)cc1 [Compound 126] |  | A (100)
O=C(C=NN(Cc1ccc(Cl)cc1)c1cccc(Cl)c1)Nc1ccc(OC(F)(F)F)cc1 [Compound 127] |  | A (100)
O=C(C=NN(Cc1ccc([N+](=O)[O-])cc1)c1cccc(Cl)c1)Nc1ccc(Cl)cc1 [Compound 128] |  | A (100)
O=C(C=NN(Cc1ccc([N+](=O)[O-])cc1)c1cccc(Cl)c1)Nc1ccc(OC(F)(F)F)cc1 [Compound 129] |  | A (100)
N#Cc1ccc(CN(N=CC(=O)Nc2ccc(Cl)cc2)c2cccc(Cl)c2)cc1 [Compound 130] |  | C (89-80)
N#Cc1ccc(CN(N=CC(=O)Nc2ccc(OC(F)(F)F)cc2)c2cccc(Cl)c2)cc1 [Compound 131] |  | C (89-80)
N#Cc1ccc(CN(N=CC(=O)Nc2ccc(SC(F)(F)F)cc2)c2cccc(Cl)c2)cc1 [Compound 132] |  | A (100)
N#Cc1ccc(CN(N=CC(=O)Nc2ccc([S+]([O-])C(F)(F)F)cc2)c2cccc(Cl)c2)cc1 (centres unmarked) [Compound 133] |  | A (100)

SMILES | activity of the nests (effect) [1] | Termite-killing effect [2]
N#Cc1ccc(CN(N=CC(=O)Nc2ccc(Cl)cc2)c2cccc(F)c2)cc1 [Compound 134] |  | A (100)
N#Cc1ccc(CN(N=CC(=O)Nc2ccc(OC(F)(F)F)cc2)c2cccc(F)c2)cc1 [Compound 135] |  | B (99-90)
Cc1cccc(N(Cc2ccc(C#N)cc2)N=CC(=O)Nc2ccc(Cl)cc2)c1 [Compound 136] |  | A (100)
Cc1cccc(N(Cc2ccc(C#N)cc2)N=CC(=O)Nc2ccc(OC(F)(F)F)cc2)c1 [Compound 137] |  | A (100)
N#Cc1ccc(CN(N=CC(=O)Nc2ccc(Cl)cc2)c2cccc(C(F)(F)F)c2)cc1 [Compound 138] |  | A (100)
N#Cc1ccc(CN(N=CC(=O)Nc2ccc(OC(F)(F)F)cc2)c2cccc(C(F)(F)F)c2)cc1 [Compound 139] |  | A (100)
CC(=NN(Cc1ccc(C#N)cc1)c1cccc(Cl)c1)C(=O)Nc1ccc(OC(F)(F)F)cc1 [Compound 140] |  | A (100)
CN(C(=O)C=NN(Cc1ccc(C#N)cc1)c1cccc(C(F)(F)F)c1)c1ccc(Cl)cc1 [Compound 141] |  | D (79-50)
N#Cc1ccccc1CN(N=CC(=O)Nc1ccc(OC(F)(F)F)cc1)c1cccc(Cl)c1 [Compound 142] |  | C (89-80)
O=C(CNN(Cc1ccccc1)c1ccccc1)Nc1ccc(OC(F)(F)F)cc1 [Compound 143] |  | C (89-80)
O=C(CNN(Cc1ccc(Cl)cc1)c1ccccc1)Nc1ccc(OC(F)(F)F)cc1 [Compound 144] |  | B (99-90)
N#Cc1ccc(CN(NCC(=O)Nc2ccc(Cl)cc2)c2ccccc2)cc1 [Compound 145] |  | A (100)
N#Cc1ccc(CN(NCC(=O)Nc2ccc(OC(F)(F)F)cc2)c2ccccc2)cc1 [Compound 146] |  | D (79-50)
O=C(CNN(Cc1ccc(Cl)cc1)c1cccc(Cl)c1)Nc1ccc(Cl)cc1 [Compound 147] |  | A (100)
O=C(CNN(Cc1ccc(Cl)cc1)c1cccc(Cl)c1)Nc1ccc(OC(F)(F)F)cc1 [Compound 148] |  | A (100)
O=C(CNN(Cc1ccc([N+](=O)[O-])cc1)c1cccc(Cl)c1)Nc1ccc(Cl)cc1 [Compound 149] |  | A (100)
O=C(CNN(Cc1ccc([N+](=O)[O-])cc1)c1cccc(Cl)c1)Nc1ccc(OC(F)(F)F)cc1 [Compound 150] |  | C (89-80)
N#Cc1ccc(CN(NCC(=O)Nc2ccc(Cl)cc2)c2cccc(Cl)c2)cc1 [Compound 151] |  | C (89-80)
N#Cc1ccc(CN(NCC(=O)Nc2ccc(OC(F)(F)F)cc2)c2cccc(Cl)c2)cc1 [Compound 152] |  | B (99-90)
N#Cc1ccc(CN(NCC(=O)Nc2ccc(Cl)cc2)c2cccc(F)c2)cc1 [Compound 153] |  | A (100)
N#Cc1ccc(CN(NCC(=O)Nc2ccc(OC(F)(F)F)cc2)c2cccc(F)c2)cc1 [Compound 154] |  | B (99-90)
Cc1cccc(N(Cc2ccc(C#N)cc2)NCC(=O)Nc2ccc(Cl)cc2)c1 [Compound 155] |  | A (100)
Cc1cccc(N(Cc2ccc(C#N)cc2)NCC(=O)Nc2ccc(OC(F)(F)F)cc2)c1 [Compound 156] |  | B (99-90)
N#Cc1ccc(CN(NCC(=O)Nc2ccc(Cl)cc2)c2cccc(C(F)(F)F)c2)cc1 [Compound 157] |  | A (100)
N#Cc1ccc(CN(NCC(=O)Nc2ccc(OC(F)(F)F)cc2)c2cccc(C(F)(F)F)c2)cc1 [Compound 158] |  | C (89-80)
